Results taken from patent publication US11592453B2, “Personalized metabolomic profiling of specialized pro-resolving mediators” (THE BRIGHAM AND WOMEN'S HOSPITAL, INC., priority 2016, dated 2023).

Columns and labels:
[1] = test system: CREB and S6 in neutrophils and monocytes; assay: Single-cell analysis of intracellular signaling in whole blood leukocytes; format: cell-based, human
[2] = test system: SPM production in human whole blood; assay: SPM and eicosanoid production during coagulation with heparin, eptifibatide, ADA, celecoxib or BAI; format: cell-based
Protocol: FIG. 2 illustrates regulators of SPM formation in human blood. (A to E) Freshly drawn human peripheral blood (4 ml) containing heparin (10 U/ml) was placed in polypropylene tubes (A) whereas human peripheral blood without anticoagulant was placed in silicone-coated tubes (B to E) and incubated at 37° C. for the time course of 0 to 24 hours (see Example 1, Materials and Methods). The samples were then subjected to snap-freezing for extraction and LC-MS/MS analysis. (A) Concentrations of the members of the SPM cluster (identified in FIG. 1) in samples treated without (Coag.) or with heparin (10 U/ml) during the incubation period. Data are means±SEM of three individual donors. (B) Left: Combined concentrations of the total SPM cluster, prostaglandins, and thromboxanes after 24 hours of coagulation in the presence or absence of the αIIbβ3 inhibitor eptifibatide (Eptifib.; 20 μM). Middle: Clot volumes after 24 hours of coagulation of the indicated samples. Right: Representative clot images. Data are means±SEM of three individual donors. (C) Concentrations of total SPMs and of the indicated individual SPMs after 24 hours of coagulation in the presence or absence of 200 mU ADA. Data are means±SEM of three individual donors. *P<0.05, **P<0.01 by ratio t-test. (D) Top: LC-MS/MS measurements of adenosine concentrations in whole blood at the indicated time points during coagulation in the presence or absence of ADA. **P<0.01 when compared to the zero-hour time point. Bottom: Flow cytometric analysis of the percentage of neutrophil-platelet aggregates, which were defined as being double-positive for CD16 and CD42b, in whole blood allowed to coagulate for the indicated times in the absence (Coag.) or presence of ADA. Data are means±SEM of five individual donors. *P<0.05, **P <0.01 by student's t test. For dot plots and gating, see FIG. 7B. (E) MS/MS fragmentation profiles with diagnostic ions for the indicated SPMs identified in (C). (F) Left: PCA score plot. Red denotes +ADA for 1 hour; yellow, coagulation for 1 hour; green, coagulation for 24 hours; blue, +ADA for 24 hours. Right: PCA loading plot showing temporal clustering of the indicated mediators from three individual donors. Red denotes LM at 1 hour; blue denotes 24 hours with ADA).
FIG. 8 illustrates SPM formation in human blood clots being regulated by lipoxygenase activity. (A and B) Freshly drawn human peripheral blood (4 ml) was placed in silicone-coated tubes at 37° C. for 24 hours and coagulation was stopped by snap-freezing before LC-MS/MS analysis was performed. Concentrations of total SPMs, prostaglandins, and thromboxanes after 24 hours of coagulation (Coag.) in the presence or absence of (A) 100 μM indomethacin (Indo.) (n=six individual donors), (B) 500 nM celecoxib (CLX) or 20 μM BAI (n=three individual donors). […]

[3] = test system: human macrophages; assay: Real-time analysis of phagocytosis of E. coli by human macrophages; format: cell-based; details: 1 nM each; for rank of increase in macrophage phagocytosis among individual SPMs: individually
Protocol: Human peripheral blood mononuclear cells from deidentified healthy human volunteers from the Children's Hospital Boston blood bank were isolated by density-gradient, Ficoll-Histopaque isolation, which was followed by monocyte purification. The monocytes were then cultured for 7 days in RPMI 1640, 10% fetal calf serum (FCS) and were differentiated into macrophages through culturing with granulocyte-macrophage colony-stimulating factor (GM-CSF, 20 ng/ml).
Real-time imaging of human macrophages was performed by plating the cells (50,000 cells/well in PBS++) onto 8-well chamber slides. The chamber slides were kept in a Stage Top Incubation system for microscopes equipped with a built-in digital gas mixer and temperature regulator (TOKAI HIT model INUF-K14). A panel of SPMs (RvE1, RvD1, RvD5, LXB4, and MaR1; 1 nM each or in combination) was added to the macrophages for 15 min, which was followed by the addition of BacLight Green-labeled E. coli (at an E. coli:phagocyte ratio of 50:1). Images were then acquired every 10 min for 3 hours at 37 °C with a Keyence BZ-9000 (BIOREVO) inverted fluorescence phase-contrast microscope (20× objective) equipped with a monochrome-color switching camera using BZ-II Viewer software (Keyence). Mean fluorescence intensity was quantified with a BZ-II Analyzer.

[4] = test system: prostaglandin, thromboxane and SPM production in human whole blood; assay: LM metabololipidomics of human whole blood during coagulation in the presence of indomethacin; format: cell-based; details: 100 μM indomethacin
Protocol: FIG. 8 illustrates SPM formation in human blood clots being regulated by lipoxygenase activity. (A and B) Freshly drawn human peripheral blood (4 ml) was placed in silicone-coated tubes at 37° C. for 24 hours and coagulation was stopped by snap-freezing before LC-MS/MS analysis was performed. Concentrations of total SPMs, prostaglandins, and thromboxanes after 24 hours of coagulation (Coag.) in the presence or absence of (A) 100 μM indomethacin (Indo.) (n=six individual donors), (B) 500 nM celecoxib (CLX) or 20 μM BAI (n=three individual donors). Data are means±SEM; *P<0.05 for +BAI vs. Coag; ****P<0.0001 for +Indo vs. Coag. using ratio t-test.
Human whole blood was transferred in 4-ml aliquots to negatively charged, silicone-coated 10-ml tubes (BD) without anticoagulant. For experiments with heparin, the heparinized blood was placed in 15-ml polypropylene tubes before incubation at 37° C. For LM profiling at designated times, all samples were immediately subjected to a workup procedure by which whole blood was snap-frozen in a dry ice/isopropanol bath and were returned to room temperature (×3 cycles) before undergoing centrifugation at 100,000 g at 4° C. Supernatants (and clots for select experiments; see FIG. 6) were collected and were subjected to LC-MS/MS LM metabololipidomics. […]

[5] = test system: E. coli; assay: Whole blood bacterial killing during coagulation; format: cell-based; details: BAI 200 μM, 24 h
Protocol: FIG. 10 illustrates the inhibitor of SPM formation BAI reduces bacterial killing. Freshly drawn human peripheral blood (4 mL) was placed in silicone-coated tubes at 37° C. for 24 h and was either stopped by snap freezing for LC-MS/MS, or supernatants were placed on LB agar plates and incubated overnight at 37° C. before enumeration of bacterial colonies. (A) Bacterial survival and (B) SPM in human peripheral blood (2.0 mL) incubated with E. coli (7×10^8 CFU) in the presence or absence of a LOX inhibitor (BAI) 200 μM for 24 h; 37° C. (n=4 individual donors). Data are means±SEM; *P<0.05, ****P<0.0001 for +BAI vs. Coag using ratio t-test.
Fresh human blood (2.0 ml) without anticoagulant was incubated with E. coli (˜7×108) in the presence or absence of 200 µM baicalein (a LOX inhibitor; Sigma) and allowed to coagulate at 37° C. for 24 hours. Serum from blood were diluted in PBS on ice and aliquots were placed on LB agar and incubated overnight in a 37° C. incubator. Colonies were enumerated.

Row | Compound | intracellular signaling in neutrophils and monocytes [1] | extent of phagocytosis of E. coli by human macrophages, individual SPMs [3] | also measured
1 | CC/C=C\C[C@H](O)/C=C/C=C\C/C=C\C=C\[C@@H](O)C/C=C\CCC(=O)O [RvD5, Resolvin D5 (7S, 17S-dihydroxy-docosa-4Z, 8E, 10Z, 13Z, 15E, 19Z-hexaenoic acid)] | activated CREB and S6 | – | –
2 | heparin | – | – | reduction of SPMs in total in blood containing heparin ([2]; heparin 10 U/ml): 98%
3 | CC[C@@H](O)/C=C/C=C\C[C@@H](O)/C=C/C=C/C=C\[C@@H](O)CCCC(=O)O [RvE1, Resolvin E1 (5S, 12R, 18R-trihydroxy-eicosa-6Z, 8E, 10E, 14Z, 16E-pentaenoic acid)] | activated CREB and S6 | statistically significantly enhanced | rank of increase in macrophage phagocytosis among individual SPMs [3]: greatest increases
4 | CCCCC[C@H](O)[C@H](O)/C=C/C=C/C=C\C=C\[C@@H](O)CCCC(=O)O [LXB4, lipoxin B4: (5S, 14R, 15S-trihydroxy-eicosa-6E, 8Z, 10E, 12E-tetraenoic acid)] | activated CREB and S6 | statistically significantly enhanced | rank of increase in macrophage phagocytosis among individual SPMs [3]: greatest increases
5 | CC/C=C\C/C=C\C[C@H](O)\C=C/C=C/C=C/[C@H](O)C/C=C\CCC(=O)O [Maresin 1, maresin 1 (7R, 14S-dihydroxy-docosa-4Z, 8E, 10E, 12Z, 16Z, 19Z-hexaenoic acid)] | activated CREB and S6 | statistically significantly enhanced | –
6 | COc1ccc2c(c1)c(CC(=O)O)c(C)n2C(=O)c1ccc(Cl)cc1 [indomethacin] | – | – | total SPM amounts compared to absence of inhibitor [4]: did not substantially change; inhibition at 100 µM ([4]; Homo sapiens, 24 hours vs. coagulation alone, read-out: inhibition of total prostaglandin and thromboxane production): > 99%
7 | O=c1cc(-c2ccccc2)oc2cc(O)c(O)c(O)c12 [baicalein] | – | – | total amounts of SPMs ([2]; 20 μM BAI, 24 hours): reduced the total amounts of SPMs; increase in bacterial counts in the presence of the lipoxygenase inhibitor ([5]; P<0.0001): > 10 fold; reduction in the abundances of members of the SPM cluster from coagulation ([5]; with E. coli): > 80%
8 | CC/C=C\C[C@H](O)/C=C/C=C\C=C\C=C\[C@@H](O)[C@@H](O)C/C=C\CCC(=O)O [RvD1, Resolvin D1 (7S, 8R, 17S-trihydroxy-docosa-4Z, 9E, 11E, 13Z, 15E, 19Z-hexaenoic acid)] | activated CREB and S6 | statistically significantly enhanced | –
